Results from patent US8569469B2, “B12-dependent dehydratases with improved reaction kinetics” (priority 2002, dated 2013).
pKi: −log10 of the molar value.

Columns and labels:
Format in all cases: biochemical
[1] = target: Klebsiella pneumoniae ATCC 25955 B12-dependent glycerol dehydratase (GDH), wild type, SEQ ID NO: 1 (α, β, γ subunits SEQ ID NO: 2, 3, 4) (Klebsiella pneumoniae, UniProt O08505+Q59476); experiment: Time course of GDH reaction with glycerol, with and without 1,3-propanediol (permeabilized cells, FIG. 1); parameters: permeabilized cells (A1) or purified (A2-A4)
Protocol: FIG. 1 illustrates the typical time course associated with GDH inactivation. These enzyme activity assays were conducted using the GDH encoded by dhaB1, dhaB2, and dhaB3 (SEQ ID NO:1 and SEQ ID NO: 2, 3, and 4, respectively) of K. pneumoniae (WO 01/012833A2).
Cells were permeabilized as follows: aliquots of culture (0.3 mL) were dispensed into the square wells of a polypropylene deep-well plate (Beckman-Coulter, Fullerton, Calif.) and 10 μL of toluene containing 2.5% (v/v) Triton X-100 detergent was added to each well. Plates were then shaken for 10 min at top speed on an IKA MTS4 shaker (IKA-Werke Gmbh., Staufen, Germany). Working under red light to protect the coenzyme B12, reactions were started by adding 5 volumes of substrate solution to 1 volume of permeabilized cell suspension. The substrate solution contained 12 mM glycerol and 24 μM coenzyme B12 in 0.1 M K-Hepes, pH 8. At timed intervals, 12.5 μl aliquots of the reaction were added to the wells of a 96-well plate which contained 12.5 μl of 3 mg/mL MBTH in 0.4 M glycine-HCl, pH 2.7. At least 20 min after sampling, 125 μL of 5.5 mM FeCl3 in 10 mM HCl was added to each of the MBTH-containing samples. After a further 20 min or longer, the blue color associated with GDH activity was quantitated as absorbance at 670 nm using a Spectramax 160 plate reader (Molecular Devices, Sunnyvale, Calif.). A similar experiment was conducted in which the substrate solution was supplemented with 50 mM 1,3-propanediol.
The rate of product formation decreases rapidly with time as inactivation occurs. A theoretical curve was drawn through the points by fitting three parameters to the following equation y=T0+amp(1−exp(−kinact obsd*time)). […] The fitting parameters are related to the kinetic properties of the reaction as follows: the amplitude is equal to the initial rate of the reaction (v) divided by the observed enzyme inactivation rate (kinact obsd). The initial rate is [GDH][gly]kcat/(Km+[gly]). […]

[2] = target: Klebsiella pneumoniae GDH variant Sma3002 (α-Tyr271Cys, α-Tyr502His, stop of α to Gln (α-β fusion), β-Gln2Arg, β-Phe11 silent), SEQ ID NO: 140 (amino acid 141, (Klebsiella pneumoniae, UniProt O08505+Q59476, form not given/Y271C/Y502H)); conditions: Sma3002 (Type 2)
[3] = target: Klebsiella pneumoniae GDH variant Xba3007 (γ-Thr53Ala), SEQ ID NO: 40 (amino acid 41, 42, 43) (Klebsiella pneumoniae, UniProt O08505+Q59476); conditions: Xba3007 (Type 1)
[4] = target: Klebsiella pneumoniae GDH variant Xba3009 (α-Thr77Ala, α-Cys193Ser, stop of α to Glu (α-β fusion), β-Lys56Arg, β-Ala88 silent, β-Asp111Glu, γ-His67Tyr, γ-Thr114 (Klebsiella pneumoniae, UniProt O08505+Q59476, C193S/D111E, form not given/K56R/T77A)); conditions: Xba3009 (Type 4)

SMILES | pKi [1] | inactivation, times faster with 1,3-propanediol ([1]; 50 mM 1,3-propanediol, 10 mM glycerol, vs without 1,3-propanediol) [times] | inhibition at 50000 µM ([1]; pH 8, read-out: reduction of initial rate of the reaction) [%] | Km [2] [µM] | kcat [2] | kcat [3] | kcat [4]
OCCCO [1,3-propanediol] | ~1.82 | ~3 | ~20 |  |  |  | 
OCC(O)CO [glycerol] |  |  |  | 2940 | 9,830 min^−1 | 16,220 min^−1 | 65,373 min^−1
